Format in all cases: cell-based
One assay deals with T1, hSTING-HAQ haplotype (Homo sapiens, UniProt Q86WV6, G230A/H232R/R293Q/R71H).
T1 construct: host or cells: THP-1-Dual
In words: THP-1-Dual reporter assay (endogenous hSTING-HAQ). The settings on record: THP-1-Dual cells (hSTING-HAQ), 24 hours. The procedure:
(§1) The activities of the STING agonists to activate human or mouse STING pathways were evaluated in THP-1-Dual™, THP1-Dual™ KI-hSTING-R232, THP1-Dual™ KI-hSTING-H232 Cells and THP1-Dual™ KI-mSTING Cells. THP-1-Dual™ cells contains hSTING-HAQ haplotype and can be used to evaluate the activity of STING agonists by monitoring the activation of NF-κB pathway and the […] (IFN regulatory factor) pathways. THP1-Dual™ KO-STING cells were generated from THP1-Dual™ cells by stable knockout of the endogenous HAQ STING gene. THP1-Dual™ KI-hSTING-R232 cells, THP1-Dual™ KI-hSTING-H232 cells and THP1-Dual™ KI-mSTING cells were generated by transfecting THP1-Dual™ KO-STING cells with hSTING-R232 or hSTING-H232 or mSTING. Stimulating these reporter cells with a STING agonist activates TRF pathway and induces the production of a secreted Lucia luciferase in the cell culture medium, which can be determined using QUANTI-Luc™ reagent.
(§2) THP-1-Dual™, THP1-Dual™ KI-hSTING-R232, THP1-Dual™ KI-hSTING-H232 and THP1-Dual™ KI-mSTING reporter cells were purchased from Invivogen and maintained in manufacture recommended culture medium with required supplemental antibiotics. On the day of assay, the cells were harvested with Accutase and counted by the Vi-CELL Cell Viability Analyzers. Cells were resuspended in HEK blue detection medium and a total of 10000 cells were seeded in each well of a 384-well flat bottom plate. […] After incubation at 37° C. in a CO2 incubator for 24 hours, 20 μl of cell culture medium per well was transferred into a 384-well white (opaque) plate. 50 μl of QUANTI-Luc™ assay solution was then added to each well and the plate was immediately transferred to an ENVISION® plate reader to measure luminescence (Perkin-Elmer). Relative luminescence readings were converted to fold change of signal using untreated cells as controls. Data was fitted with non-linear regression analysis, using log (agonist) vs. response, variable slope, 4-parameter fit equation using GraphPad Prism. Data was expressed as fold change in signal vs. dose of STING agonist in nM with error bars indicating the Standard Deviation (SD) of the quadruplicates. There result was reported in Table 2 as EC50 (the midpoint of the curve, or concentration at which […] of the maximum effect was observed).
A general note: In a reporter assay the amount or activity of a reporter protein is the signal.

The target of another assay is T2, hSTING-R232 (Homo sapiens, UniProt Q86WV6, H232R).
T2 construct: host or cells: THP1-Dual KI-hSTING-R232 (from THP1-Dual KO-STING)
Description: THP1-Dual KI-hSTING-R232 reporter assay (IRF pathway, secreted Lucia luciferase). The settings on record: THP1-Dual KI-hSTING-R232 cells, 24 hours; read-out: Reporter assay EC50 (nM) THP-1-R232. The procedure:
as §1, §2

A further assay concerns the target hSTING H232 (Homo sapiens, UniProt Q86WV6). In words: THP1-Dual KI-hSTING-H232 reporter assay (IRF pathway, secreted Lucia luciferase). Set-up: host or cells: THP1-Dual KI-hSTING-H232 (from THP1-Dual KO-STING). The settings on record: THP1-Dual KI-hSTING-H232 cells, 24 hours; read-out: Reporter assay EC50 (nM) THP-1-H232. The procedure: as §1, §2
Another assay addresses T3, mSTING (Mus musculus, UniProt Q3TBT3).
T3 sequence (Q3TBT3 1-378): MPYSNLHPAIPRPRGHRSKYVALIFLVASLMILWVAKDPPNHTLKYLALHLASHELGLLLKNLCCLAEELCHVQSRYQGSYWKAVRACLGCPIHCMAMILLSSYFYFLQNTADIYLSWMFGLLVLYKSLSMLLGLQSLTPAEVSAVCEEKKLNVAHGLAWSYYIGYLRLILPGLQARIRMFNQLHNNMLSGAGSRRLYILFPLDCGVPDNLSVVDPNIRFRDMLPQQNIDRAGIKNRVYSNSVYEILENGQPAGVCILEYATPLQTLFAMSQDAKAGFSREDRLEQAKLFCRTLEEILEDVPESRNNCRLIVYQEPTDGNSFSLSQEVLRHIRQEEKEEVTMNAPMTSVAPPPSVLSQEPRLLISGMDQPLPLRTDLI
Description: THP1-Dual KI-mSTING reporter assay. Set-up: host or cells: THP1-Dual KI-mSTING (from THP1-Dual KO-STING). The settings on record: THP1-Dual KI-mSTING cells, 24 hours; read-out: Reporter assay EC50 (nM) THP-1 mSTING. How it is done: as §1
THP-1-Dual™, THP1-Dual™ KI-hSTING-R232, THP1-Dual™ KI-hSTING-H232 and THP1-Dual™ KI-mSTING reporter cells were purchased from Invivogen and maintained in manufacture recommended culture medium with required supplemental antibiotics. On the day of assay, the cells were harvested with Accutase and counted by the Vi-CELL Cell Viability Analyzers. Cells were resuspended in HEK blue detection medium and a total of 10000 cells were seeded in each well of a 384-well flat bottom plate. Serial dilutions of STING agonists free drugs (1:3 serial dilution starting from 5 uM) was added into treatment wells. After incubation at 37° C. in a CO2 incubator for 24 hours, 20 μl of cell culture medium per well was transferred into a 384-well white (opaque) plate. 50 μl of QUANTI-Luc™ assay solution was then added to each well and the plate was immediately transferred to an ENVISION® plate reader to measure luminescence (Perkin-Elmer). Relative luminescence readings were converted to fold change of signal using untreated cells as controls. Data was fitted with non-linear regression analysis, using log (agonist) vs. response, variable slope, 4-parameter fit equation using GraphPad Prism. Data was expressed as fold change in signal vs. dose of STING agonist in nM with error bars indicating the Standard Deviation (SD) of the quadruplicates. There result was reported in Table 2 as EC50 (the midpoint of the curve, or concentration at which […] of the maximum effect was observed).

A value given as a limit tells only on which side of the number the result lay.

T2 sequence (Q86WV6 whole entry H232R): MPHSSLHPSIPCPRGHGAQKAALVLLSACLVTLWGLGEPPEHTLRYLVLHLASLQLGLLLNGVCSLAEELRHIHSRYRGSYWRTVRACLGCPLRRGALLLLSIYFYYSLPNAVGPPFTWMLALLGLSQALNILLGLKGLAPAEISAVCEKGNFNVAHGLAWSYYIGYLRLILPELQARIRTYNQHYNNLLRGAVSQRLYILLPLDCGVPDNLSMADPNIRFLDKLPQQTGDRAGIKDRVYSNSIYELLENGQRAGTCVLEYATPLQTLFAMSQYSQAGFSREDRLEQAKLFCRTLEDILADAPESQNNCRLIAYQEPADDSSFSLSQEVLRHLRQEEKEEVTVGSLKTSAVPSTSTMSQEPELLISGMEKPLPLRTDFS
T1 sequence (Q86WV6 whole entry R71H/G230A/H232R/R293Q): as the sequence (Q86WV6 whole entry H232R) above, with R71H, G230A, R293Q counted along it
hSTING H232, sequence (Q86WV6 whole entry): as the sequence (Q86WV6 whole entry H232R) above, with R232H counted along it

One may read the EC50 as the concentration at which the effect is half-maximal. Turning to `CCc1nc(C)oc1C(=O)Nc1nc2cc(C(N)=O)cc3c2n1C/C=C/Cn1c(NC(=O)c2cc(C)nn2CC)nc2cc(C(N)=O)cc(c21)OCC1(CNC1)CO3` [Compound 26, (3E)-7-[(4-ethyl-2-methyl-oxazole-5-carbonyl)amino]-25-[(2-ethyl-5-methyl-pyrazole-3-carbonyl)amino]spiro[14,18-dioxa-1,6,8,24-tetrazapentacyclo[17.6.1.16,9.023,26.013,27]heptacosa-3,7,9,11,13 (27), 19 (26), 20,22,24-nonaene-16,3′-azetidine]-11,21-dicarboxamide], the EC50 is > 150 nM on hSTING-HAQ haplotype, ≤ 50 nM at hSTING-R232, ≤ 50 nM on hSTING H232 and 50 to 150 nM at mSTING.

With `COc1cc(C(N)=O)cc2nc(NC(=O)c3oc(C)nc3C)n(C/C=C/Cn3c(NC(=O)c4oc(C)nc4C)nc4cc(C(N)=O)cc(OCCCN5CCC(c6nnc7n6CCNC7)CC5)c43)c12` [Compound 43, (E)-N-(5-carbamoyl-1-(4-(5-carbamoyl-2-(2,4-dimethyloxazole-5-carboxamido)-7-(3-(4-(5,6,7,8-tetrahydro-[1,2,4]triazolo[4,3-a]pyrazin-3-yl)piperidin-1-yl)propoxy)-1H-benzo[d]imidazol-1-yl)but-2-en-1-yl)-7-methoxy-1H-benzo[d]imidazol-2-yl)-2,4-dimethyloxazole-5-carboxamide], the EC50 on hSTING-HAQ haplotype, at hSTING-R232, on hSTING H232 and at mSTING was > 150 nM in each case.

With `CCc1nc(C)sc1C(=O)Nc1nc2cc(C(N)=O)cc(OC)c2n1C/C=C/Cn1c(NC(=O)c2sc(C)nc2CC)nc2cc(C(N)=O)cc(OCCCN3CCC(c4nnc5n4CCNC5)CC3)c21` [Compound 44], the EC50 on hSTING-HAQ haplotype, at hSTING-R232, at hSTING H232 and at mSTING was ≤ 50 nM each time.

For `CCn1nc(C)cc1C(=O)Nc1nc2cc(C(N)=O)cc(OC)c2n1C/C=C/Cn1c(NC(=O)c2cn(C)nc2C2CNC2)nc2cc(C(N)=O)cc(OCCCN3CC4(CCCCO4)C3)c21` [Compound 62], the EC50 on hSTING-HAQ haplotype, at hSTING-R232, at hSTING H232 and at mSTING was > 150 nM in each case.

As for `CCn1nc(C)cc1C(=O)Nc1nc2cc(C(N)=O)cc(OC)c2n1C/C=C/Cn1c(NC(=O)c2cn(C)nc2CN)nc2cc(C(N)=O)cc(OCCCN3CC4(CCCCO4)C3)c21` [Compound 63, (E)-7-(3-(5-oxa-2-azaspiro[3.5]nonan-2-yl)propoxy)-2-(3-(aminomethyl)-1-methyl-1H-pyrazole-4-carboxamido)-1-(4-(5-carbamoyl-2-(1-ethyl-3-methyl-1H-pyrazole-5-carboxamido)-7-methoxy-1H-benzo[d]imidazol-1-yl)but-2-en-1-yl)-1H-benzo[d]imidazole-5-carboxamide], the EC50 on hSTING-HAQ haplotype, at hSTING-R232, at hSTING H232 and at mSTING was > 150 nM each time.
